# From US7396837B2, “Antitumoral analogs of lamellarins” (Pharma Mar, S.A.U., priority 2002, dated 2008)
# How the values were obtained:
# IGROV-ET = test: SRB colorimetric cell growth inhibition assay, IGROV-ET (ET-743 resistant); type: cell-based; details: Homo sapiens
# Method in brief: (§1)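 After uninterrupted treatment, cultures are fixed and stained with sulforhodamine B, and absorbance reflects cell growth and viability. Each value represents the average of triplicate wells with SD.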
# DU-145 = test: SRB colorimetric cell growth inhibition assay, DU-145; type: cell-based
# Method in brief: as §1
# SK-BR-3 = test: SRB colorimetric cell growth inhibition assay, SK-BR-3; type: cell-based
# Method in brief: as §1
# LNCaP = test: SRB colorimetric cell growth inhibition assay, LNCaP; type: cell-based; details: Homo sapiens, LNCaP
# Method in brief: as §1
# SKOV-3 = test: SRB colorimetric cell growth inhibition assay, SKOV-3; type: cell-based; details: Homo sapiens
# Method in brief: (§2)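 Sulforhodamine B colorimetric assay of cell growth and viability, mean ± SD of triplicate wells. Parameters derived: GI (growth inhibition), TGI (total growth inhibition, cytostatic) and LC (cell killing, cytotoxic).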
# HT-29 = test: SRB colorimetric cell growth inhibition assay, HT-29; type: cell-based
# Method in brief: as §1
# LoVo = test: SRB colorimetric cell growth inhibition assay, LoVo; type: cell-based; details: Homo sapiens, LoVo
# Method in brief: as §1
# PANC-1 = test: SRB colorimetric cell growth inhibition assay, PANC-1; type: cell-based; details: Homo sapiens
# Method in brief: as §1
# [1] = SRB colorimetric cell growth inhibition assay, H-MEC-1; type: cell-based; details: human
# Method in brief: as §2
# H-MEC-1 = test: as above; type: cell-based; details: Homo sapiens, HMEC-1, H-MEC-1
# Method in brief: as §2
# SK-MEL-28 = test: SRB colorimetric cell growth inhibition assay, SK-MEL-28; type: cell-based
# Method in brief: as §1
# K-562 = test: SRB colorimetric cell growth inhibition assay, K-562; type: cell-based
# Method in brief: as §1
# IGROV = test: SRB colorimetric cell growth inhibition assay, IGROV; type: cell-based; details: IGROV
# Method in brief: as §1
# LoVo-Dox = test: SRB colorimetric cell growth inhibition assay, LoVo-Dox (MDR); type: cell-based; details: Homo sapiens
# Method in brief: as §1
# A-549 = test: SRB colorimetric cell growth inhibition assay, A-549; type: cell-based; details: Homo sapiens
# Method in brief: as §1
# human topoisomerase I [2] = biological target: T1, human topoisomerase I (Homo sapiens, UniProt P11387); test: Topoisomerase I DNA relaxation assay (supercoiled plasmid DNA); type: biochemical; details: supercoiled plasmid DNA, each compound tested at 1 μM, agarose gel with ethidium bromide
# T1 sequence (P11387 1-765): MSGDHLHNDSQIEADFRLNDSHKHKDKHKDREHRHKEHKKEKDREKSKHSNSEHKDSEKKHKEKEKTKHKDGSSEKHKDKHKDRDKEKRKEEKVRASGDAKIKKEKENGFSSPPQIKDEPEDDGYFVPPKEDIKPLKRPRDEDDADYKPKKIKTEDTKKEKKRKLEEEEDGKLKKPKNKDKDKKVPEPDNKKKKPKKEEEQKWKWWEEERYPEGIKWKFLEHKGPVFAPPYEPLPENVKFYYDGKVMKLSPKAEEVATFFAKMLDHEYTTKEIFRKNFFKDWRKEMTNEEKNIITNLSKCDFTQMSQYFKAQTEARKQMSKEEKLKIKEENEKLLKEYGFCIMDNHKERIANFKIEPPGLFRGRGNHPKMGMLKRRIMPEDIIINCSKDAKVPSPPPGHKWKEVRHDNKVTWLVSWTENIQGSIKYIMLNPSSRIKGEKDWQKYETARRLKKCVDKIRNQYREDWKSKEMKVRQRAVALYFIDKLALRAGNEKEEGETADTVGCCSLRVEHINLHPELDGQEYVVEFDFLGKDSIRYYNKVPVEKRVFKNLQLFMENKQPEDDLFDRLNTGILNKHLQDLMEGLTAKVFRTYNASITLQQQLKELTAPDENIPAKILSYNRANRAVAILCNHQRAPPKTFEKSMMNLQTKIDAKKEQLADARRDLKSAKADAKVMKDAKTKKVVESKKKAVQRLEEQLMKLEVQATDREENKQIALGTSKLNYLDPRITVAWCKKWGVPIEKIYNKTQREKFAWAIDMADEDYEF
# Method: (§3) Two assays, based on DNA relaxation and DNA cleavage (Bailly, C. DNA relaxation and cleavage assays to study topoisomerase I inhibitors. Methods Enzymol. 2001, 340, 610-623) were used evaluate the effects of the lamellarin analogs on the catalytic activity of human topoisomerase I.
# In the first assay, a supercoiled plasmid DNA was relaxed with topoisomerase I in the absence or presence of the test compounds, each tested at 1 μM. DNA relaxation products were then resolved by gel electrophoresis on agarose gels containing ethidium bromide to stain the DNA.
# human topoisomerase I [3] = biological target: T1, human topoisomerase I; test: Topoisomerase I cleavage of radiolabeled 117-bp DNA fragment; type: biochemical; details: 117-bp DNA restriction fragment 3' end-labeled, sequencing-type polyacrylamide gels
# Description: as §3
# A second assay, based on the cleavage of a radiolabeled DNA substrate by topoisomerase I, was used to confirm that the cationic lamellarin derivatives do effectively function as topoisomerase I poisons. A 117-bp DNA restriction fragment uniquely end-labeled at the 3′ end was subjected to cleavage by topoisomerase I in the presence of the different compounds and the resulting DNA cleavage products were resolved on sequencing-type polyacrylamide gels. The advantage of this assay is to detect the cleavage sites and to locate their positions with nucleotide resolution, providing thus information on the site selectivity of cleavage.
compound,measurement,setting,value
COc1cc(-c2c3n(c4c(=O)oc5cc(OC(=O)[C@@H](N)C(C)C)c(OC)cc5c24)CCc2cc(OC(=O)[C@@H](N)C(C)C)c(OC)cc2-3)ccc1OC(=O)[C@@H](N)C(C)C [Compound 37],GI50,"IGROV-ET; IGROV-ET, GI=growth inhibition, read-out: GI50 IGROV-ET",0.359 µM
same,IC (TGI),"IGROV-ET; IGROV-ET, total growth inhibition (cytostatic effect), read-out: TGI IGROV-ET",2.11 µM
same,CC50,"IGROV-ET; read-out: LC50 IGROV-ET, IGROV-ET, cell killing (cytotoxic effect)",8.04 µM
same,GI50,"DU-145; DU-145, GI=growth inhibition, read-out: GI50 DU-145",0.0677 µM
same,TGI DU-145,"DU-145; DU-145, total growth inhibition (cytostatic effect)",1.55E−06 Molar
same,CC50,"DU-145; Homo sapiens, DU-145, read-out: LC50 DU-145, DU-145, cell killing (cytotoxic effect)",5.62 µM
same,IC (TGI),"SK-BR-3; Homo sapiens, SK-BR-3, SK-BR-3, total growth inhibition (cytostatic effect), read-out: TGI SK-BR-3",2.12 µM
same,CC50,"SK-BR-3; Homo sapiens, SK-BR-3, read-out: LC50 SK-BR-3, SK-BR-3, cell killing (cytotoxic effect)",10.6 µM
same,GI50,"SK-BR-3; SK-BR-3, GI=growth inhibition, read-out: GI50 SK-BR-3",0.0576 µM
same,GI50,"LNCaP; LN-caP, GI=growth inhibition, read-out: GI50 LN-caP",0.593 µM
same,IC (TGI),"LNCaP; LN-caP, total growth inhibition (cytostatic effect), read-out: TGI LN-caP",2.18 µM
same,CC50,"LNCaP; read-out: LC50 LN-caP, LN-caP, cell killing (cytotoxic effect)",5.05 µM
same,GI50,"SKOV-3; SK-OV-3, SKOV-3, GI=growth inhibition, read-out: GI50 SKOV-3",1.62 µM
same,LC50 (concentration causing 50% net cell killing),"SKOV-3; SK-OV-3, read-out: LC50 SKOV-3",7.87 µM
same,IC (TGI),"SKOV-3; SK-OV-3, SKOV-3, total growth inhibition (cytostatic effect), read-out: TGI SKOV-3",3.58 µM
same,GI50,"HT-29; HT-29, GI=growth inhibition, read-out: GI50 HT-29",0.0912 µM
same,IC (TGI),"HT-29; Homo sapiens, HT-29, HT-29, TGI=total growth inhibition (cytostatic effect), read-out: TGI HT-29",2 µM
same,CC50,"HT-29; Homo sapiens, HT-29, read-out: LC50 HT-29, HT-29, LC=cell killing (cytotoxic effect)",10.9 µM
same,CC50,"LoVo; read-out: LC50 LOVO, LOVO, LC=cell killing (cytotoxic effect)",10.8 µM
same,GI50,"LoVo; GI=growth inhibition, read-out: GI50 LOVO",1.79 µM
same,IC (TGI),"LoVo; TGI=total growth inhibition (cytostatic effect), read-out: TGI LOVO",4.4 µM
same,GI50,"PANC-1; PANC-1, PANC-1, GI=growth inhibition, read-out: GI50 PANC-1",2.15 µM
same,IC (TGI),"PANC-1; PANC-1, PANC-1, TGI=total growth inhibition (cytostatic effect), read-out: TGI PANC-1",11 µM
same,CC50,"PANC-1; PANC-1, read-out: LC50 PANC-1, PANC-1, LC=cell killing (cytotoxic effect)",11 µM
same,LC50 (concentration giving 50% net cell killing),[1],4.73 µM
same,GI50,"H-MEC-1; GI=growth inhibition, read-out: GI50 H-MEC-1",0.0974 µM
same,IC (TGI),"H-MEC-1; total growth inhibition (cytostatic effect), read-out: TGI H-MEC-1",1.26 µM
same,IC (TGI),"SK-MEL-28; Homo sapiens, SK-MEL-28, MEL-28, total growth inhibition (cytostatic effect), read-out: TGI MEL-28",2.68 µM
same,CC50,"SK-MEL-28; Homo sapiens, SK-MEL-28, read-out: LC50 MEL-28, MEL-28, cell killing (cytotoxic effect)",7.95 µM
same,GI50,"SK-MEL-28; MEL-28, GI=growth inhibition, read-out: GI50 MEL-28",0.623 µM
same,IC (TGI),"K-562; Homo sapiens, K562, K-562, TGI=total growth inhibition (cytostatic effect), read-out: TGI K-562",1.97 µM
same,CC50,"K-562; Homo sapiens, K562, read-out: LC50 K-562, K-562, LC=cell killing (cytotoxic effect)",7.53 µM
same,GI50,"K-562; K-562, GI=growth inhibition, read-out: GI50 K-562",0.0124 µM
same,CC50,"IGROV; Homo sapiens, read-out: LC50 IGROV, IGROV, cell killing (cytotoxic effect)",5.89 µM
same,GI50,"IGROV; GI=growth inhibition, read-out: GI50 IGROV",0.577 µM
same,TGI IGROV,IGROV; total growth inhibition (cytostatic effect),2.17E−06 Molar
same,GI50,"LoVo-Dox; LOVO-DOX, GI=growth inhibition, read-out: GI50 LOVO-DOX",2.1 µM
same,IC (TGI),"LoVo-Dox; LOVO-DOX, TGI=total growth inhibition (cytostatic effect), read-out: TGI LOVO-DOX",4.6 µM
same,CC50,"LoVo-Dox; read-out: LC50 LOVO-DOX, LOVO-DOX, LC=cell killing (cytotoxic effect)",10.1 µM
same,GI50,"A-549; A549, A-549, GI=growth inhibition, read-out: GI50 A-549",1.72 µM
same,IC (TGI),"A-549; A549, A-549, TGI=total growth inhibition (cytostatic effect), read-out: TGI A-549",3.8 µM
same,CC50,"A-549; A549, read-out: LC50 A-549, A-549, LC=cell killing (cytotoxic effect)",8.38 µM
"CC[C@@]1(O)C(=O)OCc2c1cc1n(c2=O)Cc2cc3ccccc3nc2-1 [camptothecin, reference compound]",stimulation of DNA cleavage by topoisomerase I / inhibition of topoisomerase I (nicked DNA band) in DNA relaxation assay,human topoisomerase I [2],strongly promotes DNA cleavage by topoisomerase I
same,topoisomerase I-mediated DNA cleavage sites / cleavage profile,human topoisomerase I [3],T^↓G only
same,topoisomerase I-mediated DNA cleavage sites / cleavage profile,human topoisomerase I [3]; listed as CPT,"three sites at nucleotide positions 26, 48 and 81"
